In PMC8406304, “Inhibiting Type VI Secretion System Activity with a Biomimetic Peptide Designed To Target the Baseplate Wedge Complex” (mBio, 2021):
“Also recorded” adds a separate entry of the source.

Assays:
[1] = NMR of the free cyclic peptide; type: physicochemical; conditions: 1H-NOESY, 1.8 mM peptide, 50 mM KPO4 pH 6.9, 150 mM NaCl, 300 K
Method: (§1) All NMR experiments were recorded at 300 K on a Bruker Avance-II 600 MHz spectrometer equipped with a cryoprobe at the IMM (Institut de Microbiologie de la Mediterranée) NMR platform. The 450-μl peptide sample tube was prepared at 1.8 mM in KPO4 buffer (50 mM KPO4 [pH 6.9], 150 mM NaCl) complemented with 30 μl D2O. 1D ^1H-^1H-TOCSY, ^1H-NOESY, and ^1H-^15N HSQC spectra (F2 = 2048; F1 = 128; NS = 384) (NS is the number of scans [accumulation] for the experiment; F2 is the sweep width; F1 is the Fourier number that defines the 2D spectrum dimensions and its digital resolution) were recorded using default pulse sequences as provided by the manufacturer. For the peptide-TssK interaction experiments, 200 μl of a 410 μM stock of TssK was added to the same sample tube (1.2 mM peptide and 140 μM TssK [final concentration]), and all NMR spectra were recorded with the addition of longer ^1H-^15N HSQC spectrometry (NS = 1,024). All spectra were transformed and the figures were generated using Bruker Topspin 4.0.9.

[2] = test system: TssK-L14A; experiment: Isothermal titration calorimetry (ITC), TssK-L14A variant; type: binding, enteroaggregative Escherichia coli (EAEC); conditions: 25 μM TssK-L14A, 1 mM wild-type BCP, 50 mM HEPES pH 7.0, 150 mM NaCl, 25°C
Method: (§2) To evaluate the direct interaction between the BCP and its target TssK, we performed isothermal titration calorimetry (ITC) experiments. The wild-type BCP and TssK interact with an observable affinity (KD) of 60 μM (Fig. 5A).
(§3) The working buffer for both proteins and peptide was 50 mM HEPES (pH 7.0), 150 mM NaCl to avoid buffer mismatch. The experiments were performed at 25°C using the MicroCal PEAQ-ITC instrument (Malvern Panalyticals, Malvern, UK) in duplicate with 19 injections, first with an initial injection of 0.4 μl followed by 18 injections of 2 μl. Two assays were performed. In the first, 25 μM WT TssK ligand was in the cell and 1 mM WT BCP analyte was in the syringe. In the second, 25 μM TssK L14A ligand was in the cell and 1 mM WT BCP analyte was in the syringe. The reaction was performed with a constant stirring speed of 750 rpm; each injection lasted for 4 s with a 150-s space between injections. A constant heat control (offset) was removed from the raw data to account for heat dilution before integration. The data were fitted using the One Set of Sites model in the PEAQ-ITC analysis software.

[3] = test system: TssK; experiment: NMR peptide-TssK interaction (1H-15N HSQC, 1D 1H); type: binding, enteroaggregative Escherichia coli (EAEC)
Method: as §1

[4] = test system: TssK; experiment: Isothermal titration calorimetry (ITC), TssK-WT; type: binding, enteroaggregative Escherichia coli (EAEC); conditions: 25°C
Method: as §2, §3

SRPVMG-SRPVMG-SRPVMG (head to tail) [BCP, biomimetic cyclic peptide SRPVMG-SRPVMG-SRPVMG mimicking TssG foot 1]
3D folding / internal structure of free peptide [1]: absence of an internal structure of the free peptide
ITC binding signal with TssK-L14A [2]: None of these conditions led to a detectable ITC binding signal; also recorded: lack of binding
1H-15N HSQC correlations after addition of TssK ([3]; 1 part TssK to 10 parts BCP (1.2 mM peptide, 140 μM TssK), 50 mM KPO4 pH 6.9, 150 mM NaCl, 300 K): totally disappear
1D 1H NMR peptide peaks after addition of TssK ([3]; 1 part TssK to 10 parts BCP, pH 6.9, 300 K): strong broadening of the peptides peaks
ITC binding signature: enthalpy / ΔG ([4]; ITC signature plot, TssK-WT with BCP, pH 7.0): driven by a favorable enthalpy; also recorded: enthalpy-driven interaction with a favorable ΔG
Kd ([4]; ITC, 25 μM TssK-WT in cell, 1 mM BCP in syringe, 50 mM HEPES pH 7.0, 150 mM NaCl, duplicate, One Set of Sites fit, read-out: observable affinity (KD)): 60 µM
